# Reference: ChEMBL document CHEMBL5370604, “Identification of Micrococcin P2-Derivatives as Antibiotic Candidates against Two Gram-Positive Pathogens” (J Med Chem, 2023)
# Active and inactive are the calls of the source. The rule behind the calls is not given here.
# Key:
# Clostridioides difficile [1] = experiment: Antibacterial activity against Clostridioides difficile ribotype 027 infected in colitis induced C57BL/6J mouse assessed as survival rate at 30 mg/kg, po qd pretreated with clindamycin followed by […] infection and compound addition measured on day 5; format: functional; details: ribotype 027, 120 h, time 5 day
# Clostridioides difficile [2] = experiment: Antibacterial activity against Clostridioides difficile ribotype 027 infected in colitis induced C57BL/6J mouse assessed as increase in survival rate without recurrence at 30 mg/kg, po qd pretreated with clindamycin followed by […] infection and compound addition measured on day 10 to day 11; format: functional, organism-based; details: time 10-11 day
# Enterococcus faecalis [3] = experiment: Antibacterial activity against Clinical isolate Enterococcus faecalis assessed as inhibition of bacterial growth measured after 24 hrs by CLSI based broth dilution method; format: functional
# Clostridioides difficile [4] = experiment: Antibacterial activity against Clostridioides difficile RT017/ST37/A-B+ assessed as inhibition of bacterial growth measured after 24 hrs by CLSI based broth dilution method; format: functional
# Clostridioides difficile [5] = experiment: Antibacterial activity against Clostridioides difficile RT027/ST1/A+B+CDT+ assessed as inhibition of bacterial growth measured after 24 hrs by CLSI based broth dilution method; format: functional
# Clostridioides difficile [6] = experiment: Antibacterial activity against Clostridioides difficile NT/ST221/A+B+CDT+ assessed as inhibition of bacterial growth measured after 24 hrs by CLSI based broth dilution method; format: functional
# Clostridioides difficile [7] = experiment: Antibacterial activity against Clostridioides difficile RT130/ST5/A+B+CDT+ assessed as inhibition of bacterial growth measured after 24 hrs by CLSI based broth dilution method; format: functional
# Clostridioides difficile [8] = experiment: Antibacterial activity against Clostridioides difficile NT/ST67/A+B+CDT+ assessed as inhibition of bacterial growth measured after 24 hrs by CLSI based broth dilution method; format: functional
# Enterococcus faecium = experiment: Antibacterial activity against Enterococcus faecium ATCC 19434 assessed as inhibition of bacterial growth measured after 24 hrs by CLSI based broth dilution method; format: functional
# [9] = Genotoxicity in Salmonella typhimurium TA98 incubated for 90 min in presence of S9 fraction by Ames test; format: toxicity, subcellular; details: salmonella enterica subsp. enterica serovar typhimurium, s9, 1.5 h
# Clostridioides difficile [10] = experiment: Antibacterial activity against Clostridioides difficile RT001/ST3/A+B+ assessed as inhibition of bacterial growth measured after 24 hrs by CLSI based broth dilution method; format: functional
# [11] = Toxicity in colitis-induced C57BL/6J mouse infected with Clostridioides difficile ribotype 027 assessed as effect on Acinetobacter proportion in gut at 30 mg/kg, po qd pretreated with clindamycin followed by infected with […] and measured on day 6 post treatment by RNA sequencing analysis; format: organism-based; details: in vivo, 144 h, time 6 day
# Clostridioides difficile [12] = experiment: Antibacterial activity against Clostridioides difficile RT078/ST11/A+B+CDT+ assessed as inhibition of bacterial growth measured after 24 hrs by CLSI based broth dilution method; format: functional
# Clostridioides difficile [13] = experiment: Antibacterial activity against Clostridioides difficile RT014/ST14/A+B+ assessed as inhibition of bacterial growth measured after 24 hrs by CLSI based broth dilution method; format: functional
# [14] = Toxicity in colitis-induced C57BL/6J mouse infected with Clostridioides difficile ribotype 027 assessed as increase in Escherichia proportion in gut at 30 mg/kg, po qd pretreated with clindamycin followed by infected with […] and measured on day 20 post treatment by RNA sequencing analysis (reference value: 0%); format: organism-based; details: in vivo, 480 h, time 20 day
# [15] = Toxicity in colitis-induced C57BL/6J mouse infected with Clostridioides difficile ribotype 027 assessed as increase in Klebsiella proportion in gut at 30 mg/kg, po qd pretreated with clindamycin followed by infected with […] and measured on day 6 post treatment by RNA sequencing analysis (reference value: 0%); format: organism-based; details: in vivo, 144 h, time 6 day
# [16] = target: Voltage-gated inwardly rectifying potassium channel KCNH2 (Homo sapiens, UniProt Q12809); experiment: Inhibition of hERG expressed in HEK293 cells at 10 uM incubated for 5 mins by whole cell patch clamp assay; format: toxicity, cell-based; details: hek293, 5 min
# Chain of Voltage-gated inwardly rectifying potassium channel KCNH2 (Q12809 whole entry): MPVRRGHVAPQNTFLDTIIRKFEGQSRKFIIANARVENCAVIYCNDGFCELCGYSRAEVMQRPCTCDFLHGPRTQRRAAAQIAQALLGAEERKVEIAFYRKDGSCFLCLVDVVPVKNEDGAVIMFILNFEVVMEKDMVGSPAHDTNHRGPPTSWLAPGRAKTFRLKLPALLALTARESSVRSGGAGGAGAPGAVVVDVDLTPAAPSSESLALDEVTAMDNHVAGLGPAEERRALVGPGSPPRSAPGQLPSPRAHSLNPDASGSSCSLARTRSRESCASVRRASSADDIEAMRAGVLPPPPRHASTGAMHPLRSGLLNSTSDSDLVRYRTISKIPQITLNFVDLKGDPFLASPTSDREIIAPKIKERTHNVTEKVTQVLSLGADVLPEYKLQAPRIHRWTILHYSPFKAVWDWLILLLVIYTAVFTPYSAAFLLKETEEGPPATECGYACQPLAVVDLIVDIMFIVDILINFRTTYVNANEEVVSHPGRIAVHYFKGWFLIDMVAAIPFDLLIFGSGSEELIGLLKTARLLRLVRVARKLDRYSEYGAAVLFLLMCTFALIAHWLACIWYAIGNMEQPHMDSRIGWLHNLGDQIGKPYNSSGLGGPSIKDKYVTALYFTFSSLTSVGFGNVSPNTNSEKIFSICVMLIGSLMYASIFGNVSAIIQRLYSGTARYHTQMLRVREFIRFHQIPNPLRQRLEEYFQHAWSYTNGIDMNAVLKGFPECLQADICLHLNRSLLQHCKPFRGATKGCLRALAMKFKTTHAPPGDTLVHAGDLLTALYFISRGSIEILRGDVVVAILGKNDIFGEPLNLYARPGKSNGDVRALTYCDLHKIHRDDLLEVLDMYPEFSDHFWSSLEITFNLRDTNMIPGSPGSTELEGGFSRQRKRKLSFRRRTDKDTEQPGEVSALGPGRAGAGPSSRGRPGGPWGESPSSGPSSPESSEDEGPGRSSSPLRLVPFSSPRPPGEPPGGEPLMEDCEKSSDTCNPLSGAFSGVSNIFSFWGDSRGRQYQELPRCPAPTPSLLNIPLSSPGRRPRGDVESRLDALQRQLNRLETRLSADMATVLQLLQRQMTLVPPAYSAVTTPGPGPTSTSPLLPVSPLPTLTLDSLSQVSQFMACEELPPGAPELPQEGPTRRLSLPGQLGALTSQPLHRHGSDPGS
# [17] = Genotoxicity in Salmonella typhimurium TA100 incubated for 90 min by Ames test; format: toxicity; details: salmonella enterica subsp. enterica serovar typhimurium, 1.5 h
# [18] = Toxicity in colitis-induced C57BL/6J mouse infected with Clostridioides difficile ribotype 027 assessed as effect on gut micro-biome at 30 mg/kg, po qd pretreated with clindamycin followed by infected with […] and measured on day 6 post treatment by RNA sequencing analysis; format: organism-based; details: in vivo, 144 h, time 6 day
# Clostridioides difficile [19] = experiment: Antibacterial activity against Clostridioides difficile ATCC 43255 assessed as inhibition of bacterial growth measured after 24 hrs by CLSI based broth dilution method; format: functional
# Clostridioides difficile [20] = experiment: Antibacterial activity against Clostridioides difficile ribotype 027 infected in colitis induced C57BL/6J mouse assessed as increase in survival rate without recurrence at 30 mg/kg, po qd pretreated with clindamycin followed by […] infection and compound addition measured on day 5; format: functional; details: time 5.0 day
# [21] = Toxicity in colitis-induced C57BL/6J mouse infected with Clostridioides difficile ribotype 027 assessed as increase in Enterococcus proportion in gut at 30 mg/kg, po qd pretreated with clindamycin followed by infected with […] and measured on day 6 post treatment by RNA sequencing analysis (reference value: 0%); format: organism-based; details: in vivo, 144 h, time 6 day
# Clostridioides difficile [22] = experiment: Antibacterial activity against Clostridioides difficile RT018/ST17/A+B+ assessed as inhibition of bacterial growth measured after 24 hrs by CLSI based broth dilution method; format: functional
# Clostridioides difficile [23] = experiment: Antibacterial activity against Clostridioides difficile RT002/ST8/A+B+ assessed as inhibition of bacterial growth measured after 24 hrs by CLSI based broth dilution method; format: functional
# [24] = Toxicity in colitis-induced C57BL/6J mouse infected with Clostridioides difficile ribotype 027 assessed as increase in Escherichia proportion in gut at 30 mg/kg, po qd pretreated with clindamycin followed by infected with […] and measured on day 6 post treatment by RNA sequencing analysis (reference value: 0%); format: organism-based; details: in vivo, 144 h, time 6 day
# Clostridioides difficile [25] = experiment: Antibacterial activity against Clostridioides difficile RT012/ST54/A+B+ assessed as inhibition of bacterial growth measured after 24 hrs by CLSI based broth dilution method; format: functional
# [26] = Toxicity in colitis-induced C57BL/6J mouse infected with Clostridioides difficile ribotype 027 assessed as effect on Firmicutes proportion in gut at 30 mg/kg, po qd pretreated with clindamycin followed by infected with […] and measured on day 6 post treatment by RNA sequencing analysis; format: organism-based; details: in vivo, 144 h, time 6 day
# [27] = Genotoxicity in Salmonella typhimurium TA98 incubated for 90 min by Ames test; format: toxicity; details: salmonella enterica subsp. enterica serovar typhimurium, 1.5 h
# Clostridioides difficile [28] = experiment: Antibacterial activity against Clostridioides difficile RT015/ST35/A+B+ assessed as inhibition of bacterial growth measured after 24 hrs by CLSI based broth dilution method; format: functional
# Enterococcus faecalis [29] = experiment: Antibacterial activity against Enterococcus faecalis ATCC 29212 assessed as inhibition of bacterial growth measured after 24 hrs by CLSI based broth dilution method; format: functional
# [30] = Genotoxicity in Salmonella typhimurium TA100 incubated for 90 min in presence of S9 fraction by Ames test; format: toxicity, subcellular; details: salmonella enterica subsp. enterica serovar typhimurium, s9, 1.5 h
# [31] = Toxicity in colitis-induced C57BL/6J mouse infected with Clostridioides difficile ribotype 027 assessed as increase in Enterococcus proportion in gut at 30 mg/kg, po qd pretreated with clindamycin followed by infected with […] and measured on day 20 post treatment by RNA sequencing analysis (reference value: 0%); format: organism-based; details: in vivo, 480 h, time 20 day
# Clostridioides difficile [32] = experiment: Antibacterial activity against Clostridioides difficile RT293/ST129/A+B+ assessed as inhibition of bacterial growth measured after 24 hrs by CLSI based broth dilution method; format: functional
# [33] = Toxicity in colitis-induced C57BL/6J mouse infected with Clostridioides difficile ribotype 027 assessed as increase in Klebsiella proportion in gut at 30 mg/kg, po qd pretreated with clindamycin followed by infected with […] and measured on day 20 post treatment by RNA sequencing analysis (reference value: 0%); format: organism-based; details: in vivo, 480 h, time 20 day
# Staphylococcus aureus [34] = experiment: Antibacterial activity against Staphylococcus aureus ATCC 4330 assessed as inhibition of bacterial growth measured after 16 to 24 hrs by CLSI based broth dilution method; format: functional; details: time 16-24 hrs
# Staphylococcus aureus [35] = experiment: In vivo antibacterial activity against methicillin-resistant Staphylococcus aureus KCCM 40511 ATCC 33593 infected in soft-skin tissue BALB/c mouse infection model assessed as reduction in total number of bacteria in wound area treated as ointment administered twice at 6 and 12 hrs and measured after 24 hrs relative to mupirocin; format: functional
# Staphylococcus aureus [36] = experiment: Antibacterial activity against clinical isolate methicillin-resistant Staphylococcus aureus assessed as log reduction in CFU/ml at 16 times of MIC measured after 24 hrs by time killing analysis; format: functional
# [37] = Effective permeability of the compound at pH 5.5 at 25 uM incubated for 5 hrs by skin PAMPA analysis; format: ADME; details: pH 5.5, 5 h
# [38] = Aqueous kinetic solubility of the compound at pH 7.4 incubated for 2 hrs by UPLC-MS analysis; format: physicochemical; details: read-out: Kinetic_solubility
# [39] = Effective permeability of the compound at pH 7.4 at 25 uM incubated for 5 hrs by skin PAMPA analysis; format: ADME; details: pH 7.4, 5 h
# Staphylococcus aureus [40] = experiment: Antibacterial activity against methicillin-resistant Staphylococcus aureus assessed as inhibition of bacterial growth measured after 16 to 24 hrs by CLSI based broth dilution method; format: functional; details: time 16-24 hrs
compound,measurement,setting,value
CCc1c(Cl)c(O)c(Cl)c(O)c1C(=O)O[C@H]1[C@H](O)[C@H](OC)[C@H](OC/C2=C\C=C\C[C@H](O)/C(C)=C/[C@H](CC)[C@@H](O[C@@H]3OC(C)(C)[C@@H](OC(=O)C(C)C)[C@H](O)[C@@H]3O)/C(C)=C/C(C)=C/C[C@@H]([C@@H](C)O)OC2=O)O[C@@H]1C [FIDAXOMICIN],survival at 30 mg/kg,Clostridioides difficile [1],40%
same,Activity,Clostridioides difficile [2],inactive
C/C=C(\NC(=O)c1csc(-c2csc(-c3ccc4c(n3)-c3csc(n3)[C@H]([C@@H](C)O)NC(=O)c3csc(n3)[C@H](C(C)C)NC(=O)c3csc(n3)/C(=C/C)NC(=O)[C@H]([C@@H](C)O)NC(=O)c3csc-4n3)n2)n1)C(=O)NCCn1c([N+](=O)[O-])cnc1C,MIC,Enterococcus faecalis [3],0.25 µg/mL
same,MIC,Clostridioides difficile [4],0.125 µg/mL
same,MIC,Clostridioides difficile [5],0.125 µg/mL
same,MIC,Clostridioides difficile [6],0.125 µg/mL
same,MIC,Clostridioides difficile [7],0.125 µg/mL
same,MIC,Clostridioides difficile [8],0.125 µg/mL
same,MIC,Enterococcus faecium,0.25 µg/mL
same,Activity,[9],Non-Toxic
same,MIC,Clostridioides difficile [10],0.125 µg/mL
same,Activity,[11],Non-Toxic
same,MIC,Clostridioides difficile [12],0.125 µg/mL
same,MIC,Clostridioides difficile [13],0.125 µg/mL
same,Activity,[14],0.93%
same,Activity,[15],0.94%
same,inhibition (INH),[16],Active
same,Activity,[17],Non-Toxic
same,Activity,[18],Non-Toxic
same,MIC,Clostridioides difficile [19],0.125 µg/mL
same,survival at 30 mg/kg,Clostridioides difficile [1],80%
same,Activity,Clostridioides difficile [20],Active
same,Activity,[21],0.52%
same,MIC,Clostridioides difficile [22],0.125 µg/mL
same,MIC,Clostridioides difficile [23],0.125 µg/mL
same,Activity,[24],2.88%
same,MIC,Clostridioides difficile [25],0.125 µg/mL
same,Activity,[26],Non-Toxic
same,Activity,[27],Non-Toxic
same,MIC,Clostridioides difficile [28],0.125 µg/mL
same,MIC,Enterococcus faecalis [29],0.25 µg/mL
same,Activity,[30],Non-Toxic
same,Activity,[31],1.62%
same,MIC,Clostridioides difficile [32],0.125 µg/mL
same,Activity,[33],0.15%
same,MIC,Staphylococcus aureus [34],0.25 µg/mL
C/C=C(\NC(=O)c1csc(-c2csc(-c3ccc4c(n3)-c3csc(n3)[C@H]([C@@H](C)O)NC(=O)c3csc(n3)[C@H](C(C)C)NC(=O)c3csc(n3)/C(=C/C)NC(=O)[C@H]([C@@H](C)O)NC(=O)c3csc-4n3)n2)n1)C(=O)NCCN1CCN(C(C)C)CC1,fold change (FC),Staphylococcus aureus [35],1000
same,Activity,Staphylococcus aureus [36],>=3 log10CFU/ml
same,Peff,[37],Impermeable
same,solubility kinetic at 2 h,[38],150 µg/mL
same,Peff,[39],Impermeable
same,MIC,Clostridioides difficile [19],0.5 µg/mL
same,MIC50,Staphylococcus aureus [40],2 µg/mL
same,MIC90,Staphylococcus aureus [40],4 µg/mL
same,MIC,Staphylococcus aureus [34],0.5 µg/mL
